The text below walks through data of patent US11912668B2, “GCN2 and perk kinase inhibitors and methods of use thereof” (Deciphera Pharmaceuticals, LLC, priority 2020, dated 2024).

One test deals with PERK kinase (Homo sapiens (Human), UniProt Q9NZJ5). Put plainly: Biochemical assay for PERK (coupled pyruvate kinase/lactate dehydrogenase assay). As to conditions: 1 mM ATP, rate from 2-3 h time frame. The essentials: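 Coupled pyruvate kinase/lactate dehydrogenase readout of ATP hydrolysis via NADH oxidation (A340), 10 nM PERK, 0.25 mg/mL myelin basic protein, 1 mM ATP, pH 7.5 Tris/MgCl2 buffer, 1% DMSO. Absorbance followed 6 h at 30° C; rate from the 2-3 h window, normalised to no-compound and known-inhibitor controls, IC50 fitted.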
Sequence of PERK kinase (Q9NZJ5 other isoform, or with tags, fused parts or gaps): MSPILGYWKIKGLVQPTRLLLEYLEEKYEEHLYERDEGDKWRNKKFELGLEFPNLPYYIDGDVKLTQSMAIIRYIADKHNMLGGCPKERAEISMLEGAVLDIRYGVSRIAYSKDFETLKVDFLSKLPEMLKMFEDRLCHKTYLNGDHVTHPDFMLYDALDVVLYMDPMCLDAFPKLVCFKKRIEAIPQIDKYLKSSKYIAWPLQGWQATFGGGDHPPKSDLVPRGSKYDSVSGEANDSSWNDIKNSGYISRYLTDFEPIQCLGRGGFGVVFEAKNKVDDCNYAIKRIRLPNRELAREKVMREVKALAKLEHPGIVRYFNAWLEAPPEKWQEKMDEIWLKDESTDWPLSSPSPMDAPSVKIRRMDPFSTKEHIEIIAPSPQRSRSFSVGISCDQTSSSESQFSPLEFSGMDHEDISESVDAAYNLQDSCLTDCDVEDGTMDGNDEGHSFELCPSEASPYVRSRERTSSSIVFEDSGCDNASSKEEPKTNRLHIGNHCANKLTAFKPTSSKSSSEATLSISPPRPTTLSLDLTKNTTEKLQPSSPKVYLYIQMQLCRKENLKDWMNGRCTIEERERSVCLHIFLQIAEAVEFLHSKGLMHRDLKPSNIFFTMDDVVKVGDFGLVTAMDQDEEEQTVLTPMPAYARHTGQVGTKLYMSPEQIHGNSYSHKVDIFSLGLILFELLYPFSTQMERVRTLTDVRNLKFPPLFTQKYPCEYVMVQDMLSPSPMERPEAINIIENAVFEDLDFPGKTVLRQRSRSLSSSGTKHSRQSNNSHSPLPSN

In test [1] the test system is phospho-GCN2 (Thr899) in HCT116 colorectal cancer cells. Put plainly: HCT116 amino acid starved (-AA) phospho-GCN2 assay (Western blot). It counts as cell-based. As to conditions: Homo sapiens, HCT-116, 4 h, read-out: HCT116-AA pGCN2 Western Blot. An outline of the steps:
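HCT116 cells switched to amino-acid-free EBSS (10% dialyzed FBS, 5.5 mM glucose, vitamins) with serial compound dilutions for 4 h at 37° C. Lysates Western blotted for phospho-GCN2 (Thr899), total GCN2, ATF4 and beta-actin; IC50 values derived from quantified bands.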

The target in the next test is GCN2 kinase (Homo sapiens (Human), UniProt Q9P2K8). Put plainly: Biochemical assay for GCN2 (TR-FRET kinase activity assay). The note with it: 1 mM ATP, 3-hour incubation. An outline of the steps:
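TR-FRET assay with 2 nM GCN2, 130 nM GFP-eIF2α substrate, 0.2 mg/mL E. coli tRNA and 1 mM ATP; compounds (0.5% DMSO) reacted 3 h. Stopped with 20 mM EDTA plus 2 nM Tb-anti-peIF2α (pSer52), 60 min RT; 520/490 ratio converted to % inhibition, IC50 from four-parameter fit.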

Where only a bound is given, the exact number is not on record here.

Sequence of GCN2 kinase (Q9P2K8 whole entry): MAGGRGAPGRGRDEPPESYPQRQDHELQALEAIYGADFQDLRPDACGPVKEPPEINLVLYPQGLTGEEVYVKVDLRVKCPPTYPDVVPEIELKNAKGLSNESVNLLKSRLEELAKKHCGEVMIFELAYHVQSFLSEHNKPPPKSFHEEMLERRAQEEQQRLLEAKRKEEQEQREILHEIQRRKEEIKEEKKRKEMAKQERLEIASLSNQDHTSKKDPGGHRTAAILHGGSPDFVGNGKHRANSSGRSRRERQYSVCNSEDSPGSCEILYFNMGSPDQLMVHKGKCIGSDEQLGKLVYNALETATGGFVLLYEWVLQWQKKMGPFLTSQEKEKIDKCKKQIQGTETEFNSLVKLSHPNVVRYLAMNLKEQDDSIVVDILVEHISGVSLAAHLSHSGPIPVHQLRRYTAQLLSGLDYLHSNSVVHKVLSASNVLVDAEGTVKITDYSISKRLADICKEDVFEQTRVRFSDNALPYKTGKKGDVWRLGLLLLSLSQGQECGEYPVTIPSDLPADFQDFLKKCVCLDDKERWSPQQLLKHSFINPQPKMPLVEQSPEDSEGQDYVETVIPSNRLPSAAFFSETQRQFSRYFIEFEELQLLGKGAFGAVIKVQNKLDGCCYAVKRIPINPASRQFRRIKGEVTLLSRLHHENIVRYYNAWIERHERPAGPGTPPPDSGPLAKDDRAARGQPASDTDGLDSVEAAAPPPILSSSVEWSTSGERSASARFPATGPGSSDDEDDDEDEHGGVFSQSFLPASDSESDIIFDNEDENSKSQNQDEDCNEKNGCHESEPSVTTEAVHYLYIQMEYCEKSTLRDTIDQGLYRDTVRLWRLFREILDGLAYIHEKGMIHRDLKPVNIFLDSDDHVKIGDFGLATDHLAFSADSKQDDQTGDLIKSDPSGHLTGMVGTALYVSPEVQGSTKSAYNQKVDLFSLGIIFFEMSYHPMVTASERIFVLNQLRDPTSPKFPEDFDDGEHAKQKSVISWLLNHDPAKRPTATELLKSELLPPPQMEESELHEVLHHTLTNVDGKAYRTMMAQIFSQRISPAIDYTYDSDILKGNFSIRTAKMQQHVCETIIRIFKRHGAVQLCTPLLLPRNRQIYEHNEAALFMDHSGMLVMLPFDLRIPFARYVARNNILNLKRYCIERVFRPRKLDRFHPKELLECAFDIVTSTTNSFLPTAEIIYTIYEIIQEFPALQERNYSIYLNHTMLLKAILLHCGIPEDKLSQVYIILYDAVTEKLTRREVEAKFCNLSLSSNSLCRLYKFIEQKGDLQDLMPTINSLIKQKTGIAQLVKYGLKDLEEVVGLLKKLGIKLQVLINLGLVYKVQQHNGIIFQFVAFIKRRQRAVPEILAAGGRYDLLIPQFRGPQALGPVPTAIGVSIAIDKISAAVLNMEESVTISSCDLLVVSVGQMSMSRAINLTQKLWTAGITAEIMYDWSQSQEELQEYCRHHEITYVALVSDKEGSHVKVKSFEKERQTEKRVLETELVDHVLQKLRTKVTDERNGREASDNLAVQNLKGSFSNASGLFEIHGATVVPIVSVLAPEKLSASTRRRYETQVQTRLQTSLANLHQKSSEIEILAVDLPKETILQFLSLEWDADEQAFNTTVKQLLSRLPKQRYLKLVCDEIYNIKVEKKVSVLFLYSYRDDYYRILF

Take `CNc1ncc2cc(-c3cccc(NS(=O)(=O)c4cc(Cl)cnc4OC)c3F)c(NC)nc2n1` [Compound 16]: the IC50 at PERK kinase was 100 to 500 nM; in test [1], no more than 100 nM; against GCN2 kinase, no more than 100 nM.
